Values quoted from earlier work, collected in paper PMC10879402, “Comparative Study of Dermal Pharmacokinetics Between Topical Drugs Using Open Flow Microperfusion in a Pig Model” (Pharmaceutical Research, 2023).

Legend:
[1] = set-up: method as in ref 52 (PF-06263276), ref 51 (PF-06763809); conditions: formulation used in this study (PF-06263276 4% solution, PF-06763809 2.3%); ref 52 (PF-06263276), ref 51 (PF-06763809)
[2] = set-up: method as in PMID 32949620; conditions: topical application of a […] cream formulation
[3] = set-up: method as in ref 64 (a number printed in a supplementary file, which may have a reference list of its own: not looked up in the article's list); conditions: topical brepocitinib 0.1%, 0.3%, 1% and 3%

## CCc1cc(O)c(F)cc1-c1ccc2c(-c3nc4c([nH]3)CCN(C(=O)c3cnc(N5CCCCC5)cn3)C4)n[nH]c2c1 [PF-06263276]
[1]
  efficacy in human psoriasis plaque test: no efficacy

## N#CC[C@H](C1CCCC1)n1cc(-c2ncnc3[nH]ccc23)cn1 [ruxolitinib]
[2]
  dermal ruxolitinib concentration (total): 63 µM
  dermal ruxolitinib concentration (unbound): 12 µM

## Cn1cc(Nc2nccc(N3C[C@H]4CC[C@@H](C3)N4C(=O)[C@@H]3CC3(F)F)n2)cn1 [brepocitinib]
[3]
  outcome in psoriasis clinical study: did not meet the primary and secondary endpoints
